The test system of one series is Intra Ocular Pressure. The following applies: 0.131% Brimonidine and 0.126% linoleic acid. From the text: The treatment is an ion pair formulation of 0.131% Brimonidine and 0.126% linoleic acid.
Series [1] relates to Rabbit Intraocular Pressure. Conditions: 20 μL of 0.2% on cornea, mean ± S.E.M., n = 8. From the text:
In this study, the animals were placed into three groups consisting of a mix of age, size and sex.
One group of animals (both sexes) were used per screening study.
The following general procedure for administering the test compound employed in this study is presented below: • 1. Make sure that the 0.25% proparacaine Opthetic® mixture (topical local anesthetic), test compounds, and commercially available treats are available. • 2. Turn on the Digilab Modular One™ Pneuma Tonometer (pneumatonometer) [BioRad, Cambridge, Mass.]; it needs approximately 15 minutes to warm up. Turn on gas supply or air pump. • 3. Hold probe vertically with the point tip down and press “calibration check” for “zero”. • 4. Wipe the pneumatonometer probe with an alcohol swab, and inspect the tip membrane for holes. • 5. Set the external calibration device (air or water manometer) to 25 mm Hg, place the pneumatonometer probe in the calibration device to an ensure that it corresponded to 25±2 mm Hg. • 6. Obtain a rabbit. Make sure the recording data sheets are at hand. • 7. Gently restrain the rabbit via a commercial restrainer or a cotton towel. Measure the pupil diameter with the specialized ruler for each eye and record the values on the sheets provided. If the eyes are too dark to obtain a value by this method, a specialized penlight may be used. Obtain a pupil diameter measurement by shining the penlight on the cornea for one second. • 8. Slide the upper eyelid up the thumb and visually assess and score the degree of ocular surface redness. Record the value for each eye on the sheet provided. • 9. Put one drop of 0.25% proparacaine Opthetic® (50:50 mix of 0.5% proparacaine Opthetic®+Cellufresh®) on the surface of each eye. Wait one or more minutes for ophthetic to take effect. • 10. Place the pnematonometer tip on one eye at the site where the curvature of the cornea is greatest. Let the probe shank travel to the black line, not the red line. Persist until a stable reading with the standard deviation below 1.0 is obtained. Repeat the procedure for the contralateral eye. Record the data. (Note: If the animal is upset by the restraint, the reading will be artificially high and cannot be used. Use gentle restraint). • 11. At the end of the 0, 6, 24, 30, 48, 54, 72, 78 and 96 hour measurements, use an automatic pipette to apply 20 μL of the test compound to the surface of the cornea of one eye. After the 102 hour measurements, the eyes will be washed out with Refresh® and Prefrin®. • 12. Give the animal a treat and return the animal to its cage. • 13. Repeat steps 7 to 11 on the remaining animals in the group.
The following general procedure for measuring the effects of the test compound employed in this study is as follows: a reading is conducted at 0, 2, 4, 6, 24, 26, 28, 30, 48, 50, 52, 54, 72, 74, 76, 78, 96, 98, 100, and 102 hours. The pneumatonometer is calibrated before use with a manometer and the probe tip is wiped with an alcohol swab. One drop of 0.25% proparacaine Opthetic®, a corneal anesthetic, is placed on the cornea. Allow sufficient time (approximately 1 minute) for it to anesthetize the cornea before placing the probe on the eye. The eye is gently opened by the person doing the tonometer reading. The probe is placed on the cornea at the point of greatest curvature and a stable reading is obtained. The probe is held parallel to the floor and perpendicular to the line of the rabbit's sight. The reading is repeated until a reasonable reading can be obtained. The piston should be between the red and black lines or at the black line on the probe.

A further series deals with monkeys (sedation). The method, then: This study involved cross overs and a one-week wash out in between the administration of the various compounds.
As done in a previous experiments, the following method was followed: • 1. 6 trained monkeys were placed in chairs and allowed to acclimate for approximately 30 minutes. • 2. Individual monkeys were brought into the “testing room” where they were allowed to adjust to the new environment for approximately 2 minutes. […] Sedation scores were recorded on an observation sheet. • 3. The monkey were returned to the group of animals assigned to this study. • 4. 2 baseline readings were done at T-0.5 and 0 hour. After the 0 hour reading one drop of the test compound was administered to the right eye. • 5. Steps 2 & 3 were repeated at T=0.5, 1, 2, 3 and 4 hour. • 6. Animals were monitored until they recover from effects of the drug. • 7. […] Test Compound Administration:
The scoring was conducted for each animal for the different test compounds. The average results are shown on table 1.

Where two headings read alike, the source gives them in different places.

Data on two compounds can be found in US7491383B2, “Compositions having enhanced pharmacokinetic characteristics” (Allergan, Inc., priority 2001, dated 2009).

On to `Brc1c(NC2=NCCN2)ccc2nccnc12.CCCCCC=CCC=CCCCCCCCC(=O)O` [Brimonidine-linoleic acid], for which the “percent change with time of Intra Ocular Pressure” value with Intra Ocular Pressure (0 hr (administration of complex)) was 0.0 mm Hg; in the series on Intra Ocular Pressure (1 hr after administration), −10.4 mm Hg; in the series on Intra Ocular Pressure (2 hr after administration), −16.0 mm Hg; in the series with Intra Ocular Pressure (4 hr after administration) it was −9.5 mm Hg; in the series on Intra Ocular Pressure (6 hr after administration) it was −9.4 mm Hg. The “INTRAOCULAR PRESSURE” value in series [1] (time 0 hr (reading before first dose)) is given as 25.8 ± 1.2 mm Hg; in series [1] (time 2 hr), 17.1 ± 1.0 mm Hg; in series [1] (time 4 hr), 21.1 ± 1.0 mm Hg; in series [1] (time 6 hr (dosed again after reading)) it was 23.9 ± 1.0 mm Hg; in series [1] (time 24 hr (dosed after reading)), 25.6 ± 0.5 mm Hg; in series [1] (time 26 hr), 19.9 ± 0.6 mm Hg. Also, the “INTRAOCULAR PRESSURE” value in series [1] (time 28 hr) is reported as 22.9 ± 0.8 mm Hg; in series [1] (time 30 hr (dosed after reading)), 23.0 ± 1.1 mm Hg; in series [1] (time 48 hr (dosed after reading)), 26.5 ± 1.0 mm Hg; in series [1] (time 50 hr), 20.4 ± 0.6 mm Hg; in series [1] (time 52 hr), 23.4 ± 0.7 mm Hg; in series [1] (time 54 hr (dosed after reading)), 24.1 ± 0.8 mm Hg. For the same compound, the “INTRAOCULAR PRESSURE” value came out at 26.8 ± 0.9 mm Hg in series [1] (time 72 hr (dosed after reading)); 21.1 ± 0.8 mm Hg in series [1] (time 74 hr); 23.9 ± 1.1 mm Hg in series [1] (time 76 hr); 25.2 ± 0.9 mm Hg in series [1] (time 78 hr (dosed after reading)); 27.9 ± 1.1 mm Hg in series [1] (time 96 hr (dosed after reading)); 20.1 ± 1.3 mm Hg in series [1] (time 98 hr). Also, the figures for the “INTRAOCULAR PRESSURE” value in series [1] (time 100 hr) and in series [1] (time 102 hr) were 23.9 ± 0.7 mm Hg and 25.3 ± 1.6 mm Hg, respectively.

Consider “tartrate of 5-bromo-6-(2-imidozolin-2-ylamino) quinoxaline [Brimonidine Tartrate, reference compound]”, for which the “sedation compared with the other test compounds (in words)” value with monkeys (sedation) (0.2%, one drop right eye) is on record as “more sedation than dosing with Brimonidine-linoleic acid”. Besides, the “SEDATION SCORE (average, scale S=0 to S=4)” value in the series with monkeys (sedation) (0.2%, one drop right eye, time 0 hr (baseline, before dosing)) is on record as 0.8; with monkeys (sedation) (0.2%, one drop right eye, time 0.5 hr), 0.8; with monkeys (sedation) (0.2%, one drop right eye, time 1 hr), 1.7; in the series with monkeys (sedation) (0.2%, one drop right eye, time 2 hr) it was 2.6; with monkeys (sedation) (0.2%, one drop right eye, time 3 hr) it was 2.5; in the series with monkeys (sedation) (0.2%, one drop right eye, time 4 hr), 2.7. Besides, the “SEDATION SCORE (average, scale S=0 to S=4)” value in the series on monkeys (sedation) (0.2%, one drop right eye, time −0.5 hr (baseline)) turned out to be 0.7. Moreover, in the series with monkeys (sedation) (usually from the 2-hour time point to the end of observations), the “observed state of the monkeys on average” value is “sleepy and inactive with heavy eyes”.
